Results published in patent publication US12479834B2, “Phenol compound or salt thereof” (TAIHO PHARMACEUTICAL CO., LTD., priority 2019, dated 2025).
Blank lines part the entries; values can stand above or below the compound they belong to.

What was measured:
KRAS G12C mutant = molecular target: T1, KRAS G12C mutant (Homo sapiens, UniProt P01116, G12C); test: Inhibition of SOS1-mediated nucleotide (GDP-GTP) exchange reaction of KRAS G12C mutant, BODIPY FL GDP fluorescence; type: biochemical; conditions: preincubated 25° C. 4 hours with 25 nM KRAS G12C bound with BODIPY FL GDP; SOS1 100 nM, GppNHp 1 μM, 30 minutes
T1 construct: 50 μM G12C K-Ras4B (1-169) protein and 1 mM BODIPY® FL GDP; His tag (N, cleaved yes); made in house; host or cells: E. coli BL21 (DE3)
Text: (§1) SOS1 protein was expressed in E. coli strain BL21 (DE3) by synthesizing a nucleotide sequence encoding the amino acid sequence represented by GenPept ID NP_005624 as a sequence optimized for E. coli by use of GeneArt Technology (Life Technologies Corp.) such that the protein was N-terminally His-tagged and fused with a TEV protease recognition sequence (ENLYFQG). The expressed His-tagged SOS1 (564-1049) was purified through a Ni column, then cleaved at its tag with N-terminally His-tagged TEV protease, and passed through a Ni column again to recover a flow-through fraction to obtain the protein.
Each compound was studied for its inhibitory effect on the exchange reaction of GDP into GppNHp in BODIPY® FL bound with the KRAS G12C mutant by fluorescence measurement using the G12C K-Ras4B (1-169) protein and the SOS1 protein.
For the preparation of the KRAS G12C mutant bound with BODIPY® FL GDP, first, 50 μM G12C K-Ras4B (1-169) protein and 1 mM BODIPY® FL GDP (Invitrogen Corp., G22360) were incubated for 1 hour in a buffer solution (20 mM Tris-HCl (pH 7.5), 50 mM NaCl, and 1 mM DTT) in ice in the presence of 2.5 mM EDTA. Then, MgCl2 was added thereto at a final concentration of 10 mM, then the mixture was incubated at room temperature for 30 minutes, and then, the protein was passed through a NAP-5 column for removal of free nucleotides and used for compound evaluation.
For the measurement of the inhibitory activity of compounds against nucleotide exchange reaction, first, the compound of the present invention was serially diluted with DMSO. Subsequently, the serially diluted solution of the compound of the present invention in DMSO (final concentration of DMSO: 5%) and the KRAS G12C mutant (25 nM) bound with BODIPY® FL GDP were added into a reaction buffer solution (20 mM Tris-HCl (pH 7.5), 100 mM NaCl, 1 mM MgCl2, 2 mM DTT, and 0.1% Tween 20), and the mixture was preincubated at 25° C. for 4 hours. Then, Son of Sevenless Homolog 1 (SOS1, amino acid region: 564-1049) and GppNHp (GMPPNP, Jena Bioscience GmbH, NU-401-50) were added thereto at final concentrations of 100 nM and 1 μM, respectively, and the mixture was reacted for 30 minutes. The change in fluorescence intensity of BODIPY® FL (excitation wavelength: 485 nm, fluorescence wavelength: 520 nm) between immediately after the start of reaction and after 30 minutes from the start of reaction was standardized, and then, the compound concentration at which 50% inhibition was achieved was calculated as IC50 (nM) when the signal value for only DMSO was defined as 0% inhibition and the signal value for no addition of GppNHp was defined as 100% inhibition.

G12C K-Ras4B (1-169) = molecular target: T2, G12C K-Ras4B (1-169) (Homo sapiens, UniProt P01116, G12C); test: Binding to KRAS G12C mutant, compound binding rate by LC-MS; conditions: final compound concentration 2 μM, 1 μM protein, 2 hours at 25° C.
T2 construct: G12C K-Ras4B (1-169) protein, which was a KRAS G12C mutant; His tag (N, cleaved yes); made in house; host or cells: E. coli BL21 (DE3)
Text: as §1, with “K-Ras4B (1-169)” for “SOS1”, “NP_004976” for “NP_005624”, “K-Ras4B (1-169)” for “SOS1 (564-1049)”, “fraction, which was further purified by anion-exchange chromatography” for “fraction”, “protein. G12C K-Ras4B (1-169) protein, which was a KRAS G12C mutant, was obtained in the same way as in the K-Ras4B(1-169) protein except that glycine at position 12 of the amino acid sequence represented by GenPept ID NP_004976 was mutated to cysteine.” for “protein.”
The K-Ras4B (1-169) protein and the G12C K-Ras4B (1-169) protein were mixed and diluted with a buffer solution (1×TBS and 0.1 mM TCEP) to prepare a protein solution containing 1 μM each of the proteins. Each test compound was dissolved at 10 mM in DMSO and further diluted 10-fold with DMSO to make a 1 mM solution. Then, the solution was diluted 5-fold with DMSO to make a 200 μM solution. The 200 μM solution was further diluted 5-fold to make a […] solution. 1 μL of the 40 μM test compound was added to 19 μL of the 1 μM protein solution such that the final compound concentration was 2 μM. The mixture was stored for 2 hours in an incubator of 25° C., and the reaction was terminated by the addition of 80 μL of a 1×TBS solution containing 0.2% formic acid, followed by LC-MS measurement.
The LC-MS measurement was performed by using Xevo G2-S Q-Tof manufactured by Waters Corp., performing reverse-phase chromatography with a desalting column, and obtaining mass spectra of positive ions by electrospray. For the mass spectra, spectra of polyvalent ions were collectively converted to molecular weights by the MaxEnt technique using OpenLynx software, and then, a compound binding rate was obtained from the ratio of […].
The binding rates of test compounds having a final compound concentration of 2 μM for G12C K-Ras4B (1-169) are shown in the table below. The binding rate for G12C K-Ras4B (1-169) is rated “A” for 80% or more, “B” for 60% or more and less than 80%, “C” for 40% or more and less than 60%, “D” for 20% or more and less than 40%, and “E” for less than 20%.

SMILES: C=CC(=O)N1CC(NC(=O)c2ccc(CNc3cc(C(C)(C)C)c(Cl)cc3O)cc2Cl)C1 [Example 22, N-(1-Acryloylazetidin-3-yl)-4-(((5-(tert-butyl)-4-chloro-2-hydroxyphenyl)amino)methyl)-2-chlorobenzamide]
- IC50 (KRAS G12C mutant): 2380 nM
- binding rate for G12C K-Ras4B (1-169) (G12C K-Ras4B (1-169)): D (20% or more and less than 40%)

SMILES: C=CC(=O)N1CC(NC(=O)c2ccc(CNc3cc(C4CC4)c(Cl)cc3O)o2)C1 [Example 52, N-(1-Acryloylazetidin-3-yl)-5-(((4-chloro-5-cyclopropyl-2-hydroxyphenyl)amino)methyl)furan-2-carboxamide]
- IC50 (KRAS G12C mutant): 2090 nM
- binding rate for G12C K-Ras4B (1-169) (G12C K-Ras4B (1-169)): D (20% or more and less than 40%)

SMILES: C=CC(=O)N1CC(N(C)C(=O)c2ccc(CNc3cc(OC(F)(F)F)c(Cl)cc3O)o2)C1 [Example 49, N-(1-Acryloylazetidin-3-yl)-5-(((4-chloro-2-hydroxy-5-(trifluoromethoxy)phenyl)amino)methyl)-N-methylfuran-2-carboxamide]
- IC50 (KRAS G12C mutant): 1140 nM
- binding rate for G12C K-Ras4B (1-169) (G12C K-Ras4B (1-169)): E (less than 20%)

SMILES: C=CC(=O)N1CC(NC(=O)c2c(C)nc(CNc3nc([Si](C)(C)C)c(Cl)cc3O)n2C)C1 [Example 85, N-(1-Acryloylazetidin-3-yl)-2-(((5-chloro-3-hydroxy-6-(trimethylsilyl)pyridin-2-yl)amino)methyl)-1,4-dimethyl-1H-imidazole-5-carboxamide]
- IC50 (KRAS G12C mutant): 39 nM
- binding rate for G12C K-Ras4B (1-169) (G12C K-Ras4B (1-169)): C (40% or more and less than 60%)

SMILES: C=CC(=O)N1CC(NC(=O)c2ccc(CNc3cc(C(C)C)c(Cl)cc3O)o2)C1 [Example 48, N-(1-Acryloylazetidin-3-yl)-5-(((4-chloro-2-hydroxy-5-isopropylphenyl)amino)methyl)furan-2-carboxamide]
- IC50 (KRAS G12C mutant): 3970 nM
- binding rate for G12C K-Ras4B (1-169) (G12C K-Ras4B (1-169)): D (20% or more and less than 40%)

SMILES: C=CC(=O)N1CC(NC(=O)c2cnc(CNc3cc(CC(F)(F)F)c(Cl)cc3O)n2C)C1 [Example 56, N-(1-Acryloylazetidin-3-yl)-2-(((4-chloro-2-hydroxy-5-(2,2,2-trifluoroethyl)phenyl)amino)methyl)-1-methyl-1H-imidazole-5-carboxamide]
- IC50 (KRAS G12C mutant): 599 nM
- binding rate for G12C K-Ras4B (1-169) (G12C K-Ras4B (1-169)): E (less than 20%)

SMILES: C=CC(=O)N1CC(N(C)C(=O)c2cccc(CNc3cc(C(C)(C)C)c(Cl)cc3O)n2)C1 [Example 30, N-(1-Acryloylazetidin-3-yl)-6-(((5-(tert-butyl)-4-chloro-2-hydroxyphenyl)amino)methyl)-N-methylpicolinamide]
- IC50 (KRAS G12C mutant): 1690 nM
- binding rate for G12C K-Ras4B (1-169) (G12C K-Ras4B (1-169)): E (less than 20%)

SMILES: C=CC(=O)N1CC(NC(=O)c2ccc(CNc3cc(C(C)(C)C)c(Cl)cc3O)cc2)C1 [Example 3, N-(1-Acryloylazetidin-3-yl)-4-(((5-(tert-butyl)-4-chloro-2-hydroxyphenyl)amino)methyl)benzamide]
- IC50 (KRAS G12C mutant): 753 nM
- binding rate for G12C K-Ras4B (1-169) (G12C K-Ras4B (1-169)): B (60% or more and less than 80%)

SMILES: C=CC(=O)N1CC(N(C)C(=O)c2coc(CNc3cc(C(C)(C)C)c(Cl)cc3O)c2)C1 [Example 33, N-(1-Acryloylazetidin-3-yl)-5-(((5-(tert-butyl)-4-chloro-2-hydroxyphenyl)amino)methyl)-N-methylfuran-3-carboxamide]
- IC50 (KRAS G12C mutant): 1490 nM
- binding rate for G12C K-Ras4B (1-169) (G12C K-Ras4B (1-169)): E (less than 20%)

Now from value to compound:

- IC50 (KRAS G12C mutant): 61 nM
- binding rate for G12C K-Ras4B (1-169) (G12C K-Ras4B (1-169)): A (80% or more)
SMILES: CN(C)C/C=C/C(=O)N1CC(NC(=O)c2cnc(CNc3cc(C(C)(C)C)c(Cl)cc3O)n2C)C1 [Example 89, (E)-2-(((5-(tert-Butyl)-4-chloro-2-hydroxyphenyl)amino)methyl)-N-(1-(4-(dimethylamino)but-2-enoyl)azetidin-3-yl)-1-methyl-1H-imidazole-5-carboxamide]

- IC50 (KRAS G12C mutant): 9800 nM
- binding rate for G12C K-Ras4B (1-169) (G12C K-Ras4B (1-169)): E (less than 20%)
SMILES: C=CC(=O)N1CC(NC(=O)c2ccc(CNc3cc(C(C)(C)C)ccc3O)o2)C1 [Example 66, N-(1-Acryloylazetidin-3-yl)-5-(((5-(tert-butyl)-2-hydroxyphenyl)amino)methyl)furan-2-carboxamide]

- IC50 (KRAS G12C mutant): 225 nM
- binding rate for G12C K-Ras4B (1-169) (G12C K-Ras4B (1-169)): B (60% or more and less than 80%)
SMILES: C=CC(=O)N1CC(NC(=O)c2c(C)nc(C(C)Nc3cc(C(C)(C)C)c(Cl)cc3O)n2C)C1 (centres unmarked) [Example 81, N-(1-Acryloylazetidin-3-yl)-2-(1-((5-(tert-butyl)-4-chloro-2-hydroxyphenyl)amino)ethyl)-1,4-dimethyl-1H-imidazole-5-carboxamide]

- IC50 (KRAS G12C mutant): 109 nM
- binding rate for G12C K-Ras4B (1-169) (G12C K-Ras4B (1-169)): C (40% or more and less than 60%)
SMILES: Cc1nc(CNc2cc(C(C)(C)C)c(Cl)cc2O)sc1C(=O)NC1CN(C(=O)/C=C/CN(C)C)C1 [Example 88, (E)-2-(((5-(tert-Butyl)-4-chloro-2-hydroxyphenyl)amino)methyl)-N-(1-(4-(dimethylamino)but-2-enoyl)azetidin-3-yl)-4-methylthiazole-5-carboxamide]

- IC50 (KRAS G12C mutant): 37 nM
- binding rate for G12C K-Ras4B (1-169) (G12C K-Ras4B (1-169)): A (80% or more)
SMILES: C=CC(=O)N1CC(NC(=O)c2cnc(CNc3cc(C(C)C)c(Cl)cc3O)n2C)C1 [Example 60, N-(1-Acryloylazetidin-3-yl)-2-(((4-chloro-2-hydroxy-5-isopropylphenyl)amino)methyl)-1-methyl-1H-imidazole-5-carboxamide]

- IC50 (KRAS G12C mutant): 522 nM
- binding rate for G12C K-Ras4B (1-169) (G12C K-Ras4B (1-169)): D (20% or more and less than 40%)
SMILES: C=CC(=O)N1CC(NC(=O)c2cnc(CNc3cc(C(=C)C(F)(F)F)c(Cl)cc3O)n2C)C1 [Example 57, N-(1-Acryloylazetidin-3-yl)-2-(((4-chloro-2-hydroxy-5-(3,3,3-trifluoroprop-1-en-2-yl)phenyl)amino)methyl)-1-methyl-1H-imidazole-5-carboxamide]

- IC50 (KRAS G12C mutant): 144 nM
- binding rate for G12C K-Ras4B (1-169) (G12C K-Ras4B (1-169)): B (60% or more and less than 80%)
SMILES: C=CC(=O)N1CC(NC(=O)c2cnc(CNc3cc(CC)c(Cl)cc3O)n2C)C1 [Example 61, N-(1-Acryloylazetidin-3-yl)-2-(((4-chloro-5-ethyl-2-hydroxyphenyl)amino)methyl)-1-methyl-1H-imidazole-5-carboxamide]
